# Test results from patent US20100222410A1, “Nuclease compositions and methods” (Massachusetts Institute of Technology, priority 2008, published 2010).
# Tests used:
# YbeY = molecular target: T1, YbeY (Escherichia coli, UniProt P0A898); assay: Inhibition of YbeY RNase activity in the in vitro cleavage assay (total rRNA substrate); type: biochemical, E. coli
# T1 construct: His (N, cleaved yes); MBP (N, cleaved yes); made in house; host or cells: E. coli, pET28A vector, IPTG induction
# Description: (§1) In vitro cleavage assays. All YbeY RNase assays were carried out in 50 mM HEPES pH 7.5 in a 20 μl final volume and used 0.2 μg of purified YbeY or 8.0 μg of MBP-YbeY. For assays using total rRNA or folA mRNA as substrate, 800 ng of total E. coli rRNA or synthesized folA mRNA was incubated with YbeY or MBP-YbeY for 30′ at 37° C., separated on an agarose/synergel mix gel and stained with ethidium bromide. Where indicated EDTA was added to 50 mM and MgSO4 was added to 5 mM. For assays using ΔybeY mutant 70S ribosomes as substrate, 800 ng of ΔybeY mutant 70S ribosomes was incubated with YbeY for the indicated time at 37° C., separated on an agarose/synergel mix gel and stained with ethidium bromide. For each reaction, 200 pmol of short RNA substrate was incubated with YbeY or MBP-YbeY for the indicated time at 37° C. Products were separated on denaturing PAGE. The ladder used for each substrate was made by alkaline hydrolysis of the respective substrate. A synthesized short rRNA of defined length was used as a reference for numerating the ladder.
# E. coli = assay: 17S rRNA accumulation after treatment of E. coli (total rRNA analysis); type: cell-based
# Description: Polysome and rRNA analysis. Polysome profiles were obtained as described previously. rRNA was extracted from logarithmically growing cultures or separated ribosome fractions using Qiagen RNeasy Mini Kit. 16S and 23 rRNA were separated using Synergel/Agarose gel electrophoresis as described previously. […] The site-specific RNase H cleavage assay was performed as described previously followed by Northern hybridization using primers specific for the mature 3′termini of 16S, 23S, and 5S, respectively. 100 ng of total MC4100 or mutant RNA were used for each assay. All reactions were separated on denaturing polyacrylamide gels.
# total E. coli rRNA = assay: In vitro cleavage assay, total rRNA as substrate; type: biochemical; conditions: MBP-YbeY at four times the molar concentration of YbeY
# Description: as §1
# folA mRNA = assay: In vitro cleavage assay, defined mRNA as substrate; type: biochemical
# Description: as §1
# [1] = test system: double stranded or single stranded DNA; assay: YbeY activity on DNA; type: biochemical; conditions: in vitro
# [2] = test system: purified 70S ribosomes isolated from the ΔybeY mutant; assay: In vitro cleavage assay, 70S ribosomes as substrate; type: biochemical, E. coli; conditions: over time, absence of Mg^2+
# Description: as §1
# [3] = test system: short, sequence-defined, RNA substrates; assay: In vitro cleavage assay, short sequence-defined RNA substrates; type: biochemical; conditions: for position of major cleavage product from the beginning of the duplex: partially dsRNA substrate with ssRNA 3′ terminus
# Description: as §1
# [4] = test system: 16S rRNA 3′ terminus mimic; assay: YbeY activity on 16S rRNA 3′ terminus mimics; type: biochemical, E. coli
# Description: as §1
# [5] = partially duplexed RNA substrate with 5′ ssRNA terminus, FIG. 3G
# T1 sequence (P0A898 whole entry): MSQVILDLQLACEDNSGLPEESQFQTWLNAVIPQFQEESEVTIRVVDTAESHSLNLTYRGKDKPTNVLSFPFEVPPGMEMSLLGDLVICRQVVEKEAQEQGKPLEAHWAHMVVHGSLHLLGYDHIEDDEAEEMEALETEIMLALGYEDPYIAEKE
molecule,measurement,setting,value
"O=C(O)CN(CCN(CC(=O)O)CC(=O)O)CC(=O)O [EDTA, ethylenediaminetetraacetic acid]",degradation of total rRNA by YbeY in presence of EDTA,"YbeY; EDTA added to 50 mM, 30′ at 37° C.",inhibited
"[Mg+2] [Mg^+2, magnesium(II)]",Mg^+2 concentration that inhibits YbeY's RNase activity,"YbeY; in vitro, MgSO4 added",≥ 5 mM
CC1(C)S[C@@H]2[C@H](NC(=O)[C@H](N)c3ccccc3)C(=O)N2[C@H]1C(=O)O [ampicillan],accumulation of 17S rRNA,E. coli,does not cause the accumulation of 17S
O=C(N[C@H](CO)[C@H](O)c1ccc([N+](=O)[O-])cc1)C(Cl)Cl [chloramphenicol],accumulation of 17S rRNA,E. coli,induce the rapid accumulation of 17S rRNA
OO [hydrogen peroxide],accumulation of 17S rRNA,E. coli,does not cause the accumulation of 17S
CN[C@@H]1[C@H](O)[C@H](NC)[C@H]2O[C@@]3(O)C(=O)C[C@@H](C)O[C@H]3O[C@@H]2[C@H]1O [spectinomycin],accumulation of 17S rRNA,E. coli,induce the rapid accumulation of 17S rRNA
"YbeY: E. coli UPF0054 family member, purified as MBP fusion, MBP removed by TEV protease cleavage; C-terminal FLAG tag",RNase activity against total E. coli rRNA,total E. coli rRNA,can degrade total E. coli rRNA
same,degradation of a defined mRNA,folA mRNA,can also degrade
same,degradation of double stranded or single stranded DNA,[1],did not degrade
same,degradation of 70S ribosomes,[2],effectively degraded
same,"cleavage of single-stranded RNA (ssRNA) substrate, short sequence of 16S rRNA",[3]; FIG. 3C,cleaved
same,cleavage of a perfect RNA duplex,[3]; FIG. 3D,unable to cleave
same,cleavage of hairpin substrate within the loop,"[3]; hairpin with perfectly paired blunt terminus, FIG. 3H",efficiently cleaved
same,position of major cleavage product from the beginning of the duplex,[3]; FIG. 3E,+1 bases
same,position of major cleavage product from the beginning of the duplex,[3]; FIG. 3F,+2 bases
same,cleavage inside the duplex,[3]; [5],no cleavage events were observed
same,position of major cleavage product from the duplexed end,[3]; [5],+2 bases
same,position of the major YbeY cut,"[3]; third partially dsRNA substrate with free 3′ ssRNA terminus, different nucleotide sequence",flush with the dsRNA end
same,cleavage of 50 nucleotide ssRNA 16S rRNA 3′ terminus mimic,"[4]; mimic alone, 4 μg of YbeY",cleaved this substrate to generate a mature 3′ terminus
same,cleavage at the maturation site,"[4]; mimic paired with a short mRNA, flap like structure",enhance YbeY cleavage at the maturation site
gentamycin,accumulation of 17S rRNA,E. coli,induce the rapid accumulation of 17S rRNA
